# Measured values from patent publication US11208400B2, “Substituted 6-(1H-pyrazol-1-yl)pyrimidin-4-amine derivatives and uses thereof” (Bayer Aktiengesellschaft, priority 2016, dated 2021).
# Molecular target: T1, human Npt2a (Homo sapiens, UniProt Q06495)
# T1 construct: expressed in transfected cells
# T1 sequence (Q06495 1-639): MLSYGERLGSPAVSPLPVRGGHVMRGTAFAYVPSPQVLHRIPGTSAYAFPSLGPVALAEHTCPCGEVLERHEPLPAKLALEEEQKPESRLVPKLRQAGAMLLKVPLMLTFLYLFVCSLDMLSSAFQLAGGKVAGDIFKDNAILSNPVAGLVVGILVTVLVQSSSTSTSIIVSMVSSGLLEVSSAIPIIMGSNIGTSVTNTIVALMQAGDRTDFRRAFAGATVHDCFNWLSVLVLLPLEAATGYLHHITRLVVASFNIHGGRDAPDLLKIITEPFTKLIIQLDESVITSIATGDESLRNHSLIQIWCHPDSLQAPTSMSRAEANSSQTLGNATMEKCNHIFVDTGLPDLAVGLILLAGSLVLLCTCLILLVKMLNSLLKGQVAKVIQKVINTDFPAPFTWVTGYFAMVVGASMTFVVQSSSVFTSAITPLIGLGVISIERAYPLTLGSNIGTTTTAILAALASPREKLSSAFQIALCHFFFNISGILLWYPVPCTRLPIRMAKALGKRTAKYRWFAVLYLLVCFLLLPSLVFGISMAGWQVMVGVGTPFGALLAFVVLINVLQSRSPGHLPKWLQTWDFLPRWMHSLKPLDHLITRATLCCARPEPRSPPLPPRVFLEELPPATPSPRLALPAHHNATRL
# Test: Npt2a activity cell based assay, membrane potential dye, CHO T-REx hNpt2a cells
# Settings: doxycycline-induced, depolarization by sodium phosphate influx, average or median values if tested more than once
# Outline: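 Cells were doxycycline-induced CHO T-REx hNpt2a, dye-loaded and pretreated 5 min at RT with 1 nM–50 μM compound in Na-free pH 7.4 buffer. IC50 was fit to the post/pre-trigger fluorescence ratio.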
row,Structure (SMILES),IC50 [nM]
1,"Cc1nn(-c2cc(Nc3nn(CC(F)F)c(-c4ccc(F)cc4)c3Cl)ncn2)c(C)c1Cl [Example 130, N-[4-chloro-1-(2,2-difluoroethyl)-5-(4-fluorophenyl)-1H-pyrazol-3-yl]-6-(4-chloro-3,5-dimethyl-1H-pyrazol-1-yl)pyrimidin-4-amine]",28
2,"Cc1nn(-c2cc(Nc3c(C)c(-c4ccc(C#N)cc4)nn3CCC3CC3)ncn2)c(C(F)F)c1Cl [Example 237, 4-[5-({6-[4-chloro-5-(difluoromethyl)-3-methyl-1H-pyrazol-1-yl]pyrimidin-4-yl}amino)-1-(2-cyclopropylethyl)-4-methyl-1H-pyrazol-3-yl]benzonitrile]",15
3,"CCOC(=O)c1c(C)nn(-c2cc(Nc3c(C)c(-c4ccc(F)cn4)nn3CC3CC3)ncn2)c1C [Example 438, ethyl 1-(6-{[1-(cyclopropylmethyl)-3-(5-fluoropyridin-2-yl)-4-methyl-1H-pyrazol-5-yl]amino}pyrimidin-4-yl)-3,5-dimethyl-1H-pyrazole-4-carboxylate]",16
4,"Cc1nn(-c2cc(Nc3c(C)c(-c4ccc(F)cc4)nn3CC3CC3)ncn2)c(C)c1C(N(C)C)C(F)(F)F (racemic) [Example 504, N-[1-(cyclopropylmethyl)-3-(4-fluorophenyl)-4-methyl-1H-pyrazol-5-yl]-6-{4-[(±)-1-(dimethylamino)-2,2,2-trifluoroethyl]-3,5-dimethyl-1H-pyrazol-1-yl}pyrimidin-4-amine]",5
5,"CCc1c(Nc2cc(-n3nc(C)c(Cl)c3C)ncn2)n[nH]c1-c1ccc(F)cc1 [Example 5, 6-(4-chloro-3,5-dimethyl-1H-pyrazol-1-yl)-N-[4-ethyl-5-(4-fluorophenyl)-1H-pyrazol-3-yl]pyrimidin-4-amine]",27.5
6,"Cc1nn(-c2cc(Nc3nn(CC4CC4)c(-c4ccc(F)cc4)c3Cl)ncn2)c2cnccc12 [Example 207, N-[4-chloro-1-(cyclopropylmethyl)-5-(4-fluorophenyl)-1H-pyrazol-3-yl]-6-(3-methyl-1H-pyrazolo[3,4-c]pyridin-1-yl)pyrimidin-4-amine]",18
7,"Cc1cc(C)n(-c2cc(Nc3nn(C)c(-c4ccc(C(F)F)cc4)c3C)ncn2)n1 [Example 409, N-{5-[4-(difluoromethyl)phenyl]-1,4-dimethyl-1H-pyrazol-3-yl}-6-(3,5-dimethyl-1H-pyrazol-1-yl)pyrimidin-4-amine]",140
8,"CCc1c(Nc2cc(-n3nc(C)c(C(C)(C)O)c3C)ncn2)nn(CC2CC2)c1-c1ccc(F)cc1 [Example 188, 2-[1-(6-{[1-(cyclopropylmethyl)-4-ethyl-5-(4-fluorophenyl)-1H-pyrazol-3-yl]amino}pyrimidin-4-yl)-3,5-dimethyl-1H-pyrazol-4-yl]propan-2-ol]",710
9,"Cc1nn(-c2cc(Nc3c(C)c(-c4ccc(F)cc4)nn3CC3CC3)ncn2)c(C)c1C(F)(F)F [Example 381, N-[1-(cyclopropylmethyl)-3-(4-fluorophenyl)-4-methyl-1H-pyrazol-5-yl]-6-[3,5-dimethyl-4-(trifluoromethyl)-1H-pyrazol-1-yl]pyrimidin-4-amine]",8
